In PMC5149029, “New Aspects of Silibinin Stereoisomers and their 3-O-galloyl Derivatives on Cytotoxicity and Ceramide Metabolism in Hep G2 hepatocarcinoma Cell Line” (Iranian Journal of Pharmaceutical Research : IJPR, 2016):
Marks after values point to notes of the source that are not given here.

Columns and labels:
[1] = system: caspase-3; experiment: Caspase-3 activity, colorimetric substrate Ac-DEVD-pNA; assay type: cell-based, human; settings: Hep G2, 48 h, control 0.38
Description: (§1) The cell line was grown in RPMI-1640 medium supplemented with L-glutamine 2 mM, HEPESNa 25 mM, penicillin 100 U/mL, streptomycin 100 μg/mL and 10% […] (FBS) at 37 °C in a humidified atmosphere containing 5% CO2. Hep G2 cells were seeded at 1 × 10^6 cells/mL and sub cultured every 2–3 days after 60–80% confluence was reached. To prepare the lysates cells attached to the culture plate were scraped off with a cell scraper and collected in a 1.5 mL tube by centrifugation. The cell pellets were rinsed with PBS, suspended in sterile water, and then lysed by sonication. For each experiment, the cells were treated separately with increasing concentrations of silibinin derivatives (0, 25, 50, 75, 100, 125, 150, 175 and 200 μM) and incubated for 48 h.
(§2) The activities of caspase-3 and 9 were measured using colorimetric substrates. Cells were added to a lysis buffer (100 mM HEPES [pH 7.5], 0.1% CHAPS, 1 mM PMSF, 10 mM MDTT, 1 mM EDTA) and placed on ice for 30 min. After the cells were centrifuged at 10,000 × g for 10 min at 4 °C, 50 μg of protein from the supernatants was added to each of the caspase substrates. The colorimetric substrates for caspase-3 and 9 were Ac-DEVD-pNA (Asp-Glu-Val-Asp-pNA) and Ac-LEHD-pNA (N-acetyl-Leu-Glu-His-Asp-pNA), respectively. After a 2 h incubation, to measure p-nitroanilide absorbance was determined at 405 nm ([34]).

[2] = system: Neutral sphingomyelinase (NSMase); experiment: NSMase activity assay (Amplex Red kit); assay type: cell-based, human; settings: Hep G2, all concentrations (0-200 µM)
Description: as §1
Amplex™ Red NSMase Assay Kit (AAT Bioquest®, Inc. product no: 13620) was used to determine NSMases activity. The kit uses Amplite™ Red as a colorimetric probe to indirectly quantify the phosphocholine produced from the hydrolysis of sphingomyelin by NSMase.
Cells were washed with ice cold PBS and homogenized in neutral lysis buffer (20 mM Tris–HCl pH 7.4, 2 mM EDTA, 5 mM EGTA, 1 mM PMSF, 1% protein cocktail inhibitor and 1 mM sodium orthovanadate) for NSMase assays. Samples were kept on ice 15 min and centrifuged at 14,000 × g for 20 min at 4 °C. 100 µL of each supernatant fraction were incubated at 37 °C for 1hour with working solution. The fluorescence count of produced resorophine in the previous step was measured with a fluorescence micro plate reader by using excitation at 540 nm and emission at 590 nm ([36]).

[3] = system: caspase-9; experiment: Caspase-9 activity, colorimetric substrate Ac-LEHD-pNA; assay type: cell-based, human; settings: Hep G2, 48 h, control 0.26
Description: as §1, §2

[4] = system: Hep G2 cells; experiment: Cell viability, MTT colorimetric assay; assay type: cell-based; settings: Hep G2, 48 h
Description: The cell line was grown in RPMI-1640 medium supplemented with L-glutamine 2 mM, HEPESNa 25 mM, penicillin 100 U/mL, streptomycin 100 μg/mL and 10% phosphate-buffered saline (FBS) at 37 °C in a humidified atmosphere containing 5% CO2. Hep G2 cells were seeded at 1 × 10^6 cells/mL and sub cultured every 2–3 days after 60–80% confluence was reached. […] For each experiment, the cells were treated separately with increasing concentrations of silibinin derivatives (0, 25, 50, 75, 100, 125, 150, 175 and 200 μM) and incubated for 48 h.
To measure cell viability, the 3-(4,5-dimethylthiazol-2-yl)-2,5-diphenyl tetrazolium bromide (MTT) colorimetric assay was performed as published ([32], [33]). Briefly, Hep G2 cells were seeded onto 96 flat bottom well plates (50 × 10^3 cells/well) and grown overnight. After the incubation period with silibinin isomers, cells were washed twice with phosphate-buffered saline solution and incubated with MTT solution at a final concentration of 0.5 mg/mL for 3 h and then lysed in dimethyl sulfoxide. Optical density was measured at 540 nm and the background absorbance measured at 660 nm was subtracted. Each experiment was replicated separately for three times.

[5] = molecular target: T1, Acid ceramidase (ACDase) (Homo sapiens, UniProt Q13510); experiment: ACDase activity assay (fluorogenic); assay type: cell-based; settings: Hep G2, 125 µM and higher concentrations
T1 construct: endogenous in cells; host or cells: Hep G2
T1 sequence (Q13510 22-395): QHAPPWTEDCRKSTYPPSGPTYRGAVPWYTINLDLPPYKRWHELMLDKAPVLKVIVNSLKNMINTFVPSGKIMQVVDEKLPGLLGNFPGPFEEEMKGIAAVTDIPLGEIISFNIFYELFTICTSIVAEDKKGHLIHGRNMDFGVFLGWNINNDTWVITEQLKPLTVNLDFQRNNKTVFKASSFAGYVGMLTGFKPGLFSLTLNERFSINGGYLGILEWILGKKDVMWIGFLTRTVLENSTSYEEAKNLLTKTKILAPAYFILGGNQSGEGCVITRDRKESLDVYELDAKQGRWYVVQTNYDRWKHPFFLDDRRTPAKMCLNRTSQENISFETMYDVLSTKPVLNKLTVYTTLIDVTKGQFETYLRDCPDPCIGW
Description: as §1
ACDase activity was measured in intact cells and in cell lysates by fluorogenic assays. For intact cell assays, cells (10,000/well) were seeded into 96-well plates in 10% FBS medium. After 24 h, medium was removed and replaced with 5% FBS medium containing indicated concentrations of silibinin derivatives (controls contained ethanol vehicle). Plates were placed in a tissue culture incubator at 37 °C, 5% CO2 for 24 h and cell viability assays were conducted in parallel. Fluorogenic substrate (ethanol vehicle) was then added to a final concentration of 16μM (125 μL final well volume), and the plates were incubated for 3 h at 37 °C, 5% CO2. To complete the assays, 50 μL methanol and 100 μL NaIO4 (2.5 mg/mL) in 0.1 M glycine buffer with a pH of 10.6 were added and the plates were incubated in a dark place for 2 h at 37 °C. Fluorescence was measured in the UV range (365 nm excitation/410–460 nm emission) using a GloMax® multi-detection system (Promega, Madison, WI).
To measure ACDase activity in cell lysates, cells were harvested using trypsin/EDTA, washed three times in ice-cold PBS and re-suspended at a concentration of 1 × 10^6 cells/mL in 0.2 M sucrose. After sonication on ice (microtip, 5–10 s), lysates were centrifuged at 20,000 × g at 4 °C for 15 min to remove debris. Protein in the supernatant was measured using the BCA assay (Pierce Products, Thermo Scientific, Rockford, IL) and bovine serum albumin standard curves. Supernatant protein (60 μg) was added to 96-well plates containing the indicated compounds and sodium acetate–acetic acid buffer, pH 4.5 (25 mM), and incubated for 1 h at 37 °C, in final well volume of 100 μL. Fluorescent substrate was added to a final concentration of 40 μM (125 μL total well volume), and the assay was incubated in the dark at 37 °C for 3 h. Fluorescence was then measured as described above ([23]).

NSMase activity with respect to control [2]: did not exert any significant change | ACDase activity in cell extract compared to control [5]: markedly inhibited
SMILES: COc1cc([C@@H]2Oc3cc([C@H]4Oc5cc(O)cc(O)c5C(=O)[C@@H]4OC(=O)c4cc(O)c(O)c(O)c4)ccc3O[C@H]2CO)ccc1O [SGB, 3-O-galloyl silybin B]
Caspase-3 (ΔOD 405nm) ([1]; 25 micro molar): 0.45 ± 0.065 ΔOD 405nm | Caspase-3 (ΔOD 405nm) ([1]; 50 micro molar): 0.56 ± 0.070 ΔOD 405nm | Caspase-3 (ΔOD 405nm) ([1]; 75 micro molar): 0.62 ± 0.081 ΔOD 405nm | Caspase-3 (ΔOD 405nm) ([1]; 100 micro molar): 0.78 ± 0.095 ΔOD 405nm | Caspase-3 (ΔOD 405nm) ([1]; 125 micro molar): 0.98 ± 0.128 ΔOD 405nm | Caspase-3 (ΔOD 405nm) ([1]; 150 micro molar): 1.21 ± 0.160 ΔOD 405nm | Caspase-3 (ΔOD 405nm) ([1]; 175 micro molar): 1.53 ± 0.209 ΔOD 405nm | Caspase-3 (ΔOD 405nm) ([1]; 200 micro molar): 1.63 ± 0.221 ΔOD 405nm | Caspase-9 (ΔOD 405nm) ([3]; 25 micro molar): 0.30 ± 0.048 ΔOD 405nm | Caspase-9 (ΔOD 405nm) ([3]; 50 micro molar): 0.41 ± 0.053 ΔOD 405nm | Caspase-9 (ΔOD 405nm) ([3]; 75 micro molar): 0.46 ± 0.046 ΔOD 405nm | Caspase-9 (ΔOD 405nm) ([3]; 100 micro molar): 0.53 ± 0.077 ΔOD 405nm | Caspase-9 (ΔOD 405nm) ([3]; 125 micro molar): 0.70 ± 0.093 ΔOD 405nm | Caspase-9 (ΔOD 405nm) ([3]; 150 micro molar): 0.89 ± 0.108 ΔOD 405nm | Caspase-9 (ΔOD 405nm) ([3]; 175 micro molar): 1.18 ± 0.192 ΔOD 405nm | Caspase-9 (ΔOD 405nm) ([3]; 200 micro molar): 1.34 ± 0.207 ΔOD 405nm | Cell viability (% of control) ([4]; 25 micro molar): 91 + 10.0 % of control | Cell viability (% of control) ([4]; 50 micro molar): 78 + 9.5^* % of control | Cell viability (% of control) ([4]; 75 micro molar): 65 + 8.6^* % of control | Cell viability (% of control) ([4]; 100 micro molar): 56 + 7.7^* % of control | Cell viability (% of control) ([4]; 125 micro molar): 49 + 6.9^* % of control | Cell viability (% of control) ([4]; 150 micro molar): 35 + 5.1^* % of control | Cell viability (% of control) ([4]; 175 micro molar): 29 + 4.3^* % of control
